# Tested on: L5178Y tk+/- mouse lymphoma cells
# Test: Mutagenic activity at the thymidine kinase (tk) locus
# Format: cell-based
# Conditions: compared to vehicle
# Experimental: Because some nucleobase analogs exert mutagenic activities due to their misrecognition of wrong bases, mutagenic activity of 6-HAP was determined by detecting mutagenic events at the thymidine kinase (tk) locus of L5178Y tk^+/− mouse lymphoma cells.
structure (smiles),measurement,value
"COS(C)(=O)=O [methyl methanesulfonate, reference compound]","mutagenic activity, mutation frequency at tk locus",did induce a high mutation frequency

# Reference: US12427151B2, “Compositions and method of treating cancer” (The Regents of the University of California, priority 2017, dated 2025)
